Results: US20050063956A1, “Method and device for attracting insects” (Colorado State University Research Foundation, priority 1998, published 2005)

Columns and labels:
Conditions in all cases: in vivo
[1] = tested on: western corn root worm larvae; test: Glass bead Y-tube choice test, corn volatiles versus CO2 (Example 19); set-up: species or system Diabrotica virgifera virgifera LeConte
Protocol: Bioassay Procedure. All bioassays were choice tests conducted using a vertical glass “Y” tube apparatus filled with 3-mm glass beads (Bernklau and Bjostad 1998) (FIG. 62). Volatile compounds were prepared in 35-ml polyethylene syringes (cat no. 106-0490, Sherwood Medical, St. Louis, Mo.) and a syringe pump (Sage Model 355, Fisher Scientific, Pittsburgh, Pa.) was used to provide, slow (1 ml per min) consistent delivery of the compounds into each choice arm of the bioassay apparatus. Twenty newly-hatched larvae (less than 12-hours-old) were used for each bioassay. Non-diapausing larvae were used for all experiments unless otherwise indicated below. For each choice test a minimum of 10 replicates were conducted.
Corn Headspace Versus CO2. Using the glass bead bioassay (Bernklau and Bjostad 1998) the headspace over germinating corn seeds was tested in a choice test against a series of CO2 concentrations to determine if corn volatiles (including CO2) were more attractive to the larvae than CO2 alone. A 35-ml syringe was filled with the headspace over 3-day-old germinating corn seedlings by means of a 25-cm length of slender Teflon tubing inserted into a hole drilled into the cover of the tub containing the corn seedlings.
Three different concentrations of CO2 were tested on the control side of the choice test. In the 1 st test, we used ambient room air on the control side, which contains a lower concentration of CO2 than the corn headspace (approximately 1.0 mmol/mol). In the 2nd test, we used GC-MS-SIM to match the CO2 concentration in the syringe on the control side to be equal to that measured in the syringe containing corn headspace. In the 3rd test, the syringe on the control side of the choice test contained a CO2 concentration twice that measured in the corn headspace. To prepare each of these control concentrations, a 2nd 35-ml polyethylene syringe was partially filled (approximately 5 ml) from a tank containing pure (100%) CO2 using a glass syringe. Headspace from a plastic tub containing only moist germination paper was drawn into the syringe to fill it, mixing the air and CO2 thoroughly at the same time. The gas mixtures in the polyethylene syringes were allowed to equilibrate for 15 minutes, and GC-MS-SIM was used to verify the CO2 concentrations in both syringes prior to each bioassay.
Corn Headspace Versus CO2 with Diapausing Larvae. The larvae used in our studies were from a colony of nondiapausing western corn root worm that has been maintained in our laboratory since 1986. We wished to determine if diapausing western corn root worm larvae would respond differently to corn volatiles than the colony larvae. Using the same method described above, the headspace over germinating corn seeds was tested in a choice test against a series of CO2 concentrations with western corn root worm larvae from a diapausing strain.
Corn Headspace-Coated Glass Beads versus CO2. In the previous experiments, corn volatiles were introduced into the bottom of the Y-tube and carried through the glass beads by the airstream from the syringe pump. We also tested the possibility that some volatile compounds may have been removed from the airstream by coating out on the glass beads on the bottom of the Y-tube where they would not be available for the larvae to detect at the choice point near the middle of the Y-tube. […]

[2] = tested on: Reticulitermes virginicus; test: T-tube choice-test behavioral bioassay with CO2
Protocol: (§1) Behavioral bioassay apparatus: The choice-test bioassay apparatus was constructed from a glass T-tube (5 mm inside diameter, 5 mm stem, with each branch 4.5 cm long). Each branch of the ‘T’ was bent downward (2.5 cm from the junction of the ‘T’) at a 45° angle to form a pitfall trap. A 5 mm NMR cap (cat. no. 100-0050, Drummond Scientific, Broomall, Pa.) with a 1 mm pinhole in it was firmly pushed over the end of each bent branch. A 25 cm length of Teflon tubing (0.8 mm inside diameter) was inserted 3 mm into the hole in each NMR cap and the other end of the tubing was connected to a 35 ml polyethylene syringe (cat. no. 106-0490, Sherwood Medical, St. Louis, Mo.). The two 35-ml syringes were connected to a syringe pump which was adjusted to provide an airflow of 1 ml per min into each choice arm of the bioassay apparatus.
(§2) Mixtures of CO2 and ambient air were tested to determine the termite response to a range of CO2 concentrations. […] The CO2 concentration of the syringes was determined by using GC-MS-SIM analysis (see below) before each bioassay. […]
(§3) Procedure: For bioassays, termite workers were collected from plastic tubs by using a camel's hair brush and were placed into a holding container constructed from a 3 cm length of Teflon tubing (8 mm inside diameter). […] Bioassays were conducted for 15 min, after which the number of termites in each pitfall was recorded. […]

[3] = tested on: Reticulitermes flavipes; test: T-tube choice-test behavioral bioassay with CO2
Protocol: as §1, §2, §3

`O=C=O` [CO2, carbon dioxide] was tested. Which “role in attraction of larvae to corn roots (conclusion)” value [1] did it give?
Its value is “the only attractive volatile compound that attracts western corn root worm larvae to corn roots”.

And the “CO2 concentration of best attraction” value [2]?
Its value is 10 mmol per mol.

What about the “CO2 concentration of best attraction” value [3] of the same molecule?
Its value is 10 mmol per mol.
